From US20250177481A1, “SCO-spondin-derived polypeptides for enhancing synaptic transmission” (AXOLTIS PHARMA, priority 2021, published 2025)
Where “and” joins values, the source holds several entries; their conditions need not be identical. Equal entries are not always repeated. Positions of bridges follow the written chain, without caps; N, C: chain ends. No end group written: not given here.

Experiments:
[1] = tested on: subchronic PCP-induced cognitive deficits in mice; assay: T-maze continuous alternation task in subchronic PCP mice; assay type: in vivo, Swiss CD-1 mice; details: PCP alone 30.71, control 66.43, 5 mg/kg
Source text: Phenycyclidine (PCP) is an antagonist of NMDA receptor, its administration in healthy humans produces schizophrenia-like symptoms, therefore PCP is often used to mimic schizophrenia in rodents. […] In addition, brain samples were collected shorlty after the T-Maze test to measure the levels of cerebral biomarkers involved in synaptic plasticity.
Sixty (60) male Swiss CD-1 mice were purchased from Janvier Labs (Le Genest-Saint-Isle, France) one week before the start of the study for acclimation. Mice were group-housed (6-8 mice per Eurostandard type Ill cage) and maintained in a room with controlled temperature (21-22° C.) under a reversed 12 h/12 h light-dark cycle (lights on: 5:[…]; lights off: 05:30 am) with food and water available ad libitum. The weight of mice ranged from 25.9 and 36.4 g. […]
Nicotine used as a positive control was administered at a dose of 0.4 mg/kg intraperitoneally 30 minutes prior to the T-maze trial
After administration of compounds at different timepoints all animals were tested for continuous alternation task in the T-Maze. The T-maze apparatus was made of gray Plexiglas with a main stem (55-cm long×10-cm wide×20-cm high) and two arms (30-cm long×10-cm wide×20-cm high) positioned at a 90-degree angle relative to the main stem. A start box (15-cm long×10-cm wide) was separated from the main stem by a guillotine door. Horizontal doors were also provided to close specific arms during the force choice alternation task. The experimental protocol consisted in one single session that started with 1 “forced-choice” trial, followed by 14 “free-choice” trials (Gerlai, 1998). In the first “forced-choice” trial, the mouse was confined 5 s in the start arm and then released while either the left or right goal arm was blocked by closing the sliding door. Then, it walked through the maze, eventually entered the open goal arm, and then returned to the start position. Immediately after the mouse came back to the start position, the left or right goal door was opened (i.e. the two goal doors were opened), and the mouse could choose freely between the left and right goal arms (first “free choice trial”). The mouse was considered as entered in the arm when it placed its four paws in the arm. The opposite goal door was then closed until the animal returned to the start arm. Then, a second “free choice trial” began by the opening of the closed goal door (i.e. the two goal doors were opened), leaving the choice to the mouse to enter either into the right or the left arm. The session was considered finished as soon as 14 free-choice trials had been performed in less than 10 min, and the mouse was removed from the maze. The time needed to reach these 14 “free-choices” was recorded.
The percent of spontaneous alternations was calculated as number of spontaneous alternations divided by the number of free-choice trials, an index of spatial short-term working memory. The apparatus was cleaned between each animal using alcohol (70%). Urine and feces were removed from the maze. During the trials, animal handling and the visibility of the operator were minimized as much as possible. Animals were tested in a random and blind manner.

GluN2A = GluN2A level in cortical samples of subchronic PCP mice (WES automated protein analysis); assay type: in vivo, Swiss CD-1 mice; details: PCP + NX218 5 mg/kg D14; PCP alone 73.44; n=5
Description: PCP (or saline for control group) was administered at a dose of 0.2 mg/kg by subcutaneous injections twice daily for 12 days (day 0 to day 11).
Approximately 5 minutes after the test, mice were anaesthetized with 5% isoflurane oxygen mixture. Brains were extracted immediately, then the cortex of each hemisphere were collected. Right and left cortices were transferred into clean pre-labelled microtubes and the exact weight of each sample was recorded. Finally, samples were stored at −80° C. for further analysis.
Brain samples were lysed with a defined buffer lysis consisting of CelLyticMT reagent with 1% of protease and phosphatase inhibitor cocktail (60 μL per well). Lysates were processed at +4° C. and stored at −80° C. at the end of the experiment. For each sample, the quantity of proteins was determined using the micro kit BCA (Pierce). Briefly, lysates were centrifuged and diluted at 1/20 in PBS and mixed, in equal volume, with a micro BCA. After an incubation at 60° C. for 1 hour, the quantity of proteins was measured at 562 nm with a spectrophotometer Nanovue (GE Healthcare) and compared with the standard of Bovine Serum Albumin curve (BSA, Pierce).
Automated protein analysis were performed using the WES™ system (ProteinSimple®): […]
Each protein was evaluated independently. […] 5 samples (biological replicates) per condition were analyzed.

W-S-G-W-S-S-C-S-R-S-C-G [NX218] (WSGWSSCSRSCG; disulfide 7-11 (inferred))
Spontaneous alternations in T-maze ([1]; PCP + 5 mg/kg i.p. on D12, D13 and D14 (48 h, 24 h and 2 h before trial), n=10): 62% and 62.13% | Spontaneous alternations in T-maze ([1]; PCP + 5 mg/kg i.p. on D13 (24 h before trial), n=9): 35% and 34.92% | Spontaneous alternations in T-maze ([1]; PCP + 5 mg/kg i.p. on D14 (2 h before trial), n=10): 53% and 52.87% | GluN2A level in cortical samples (GluN2A): 116.46 % of control
